{
  "source": "PubChem BioAssay (NCI)",
  "note": "“And” between values parts separate entries of the source, which are not always exact repeats. Identical values can stand only once.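 Assay format: 96-well plates, 48-hour exposure. Here, GI50 denotes the concentration required for 50% inhibition of growth. Definition used: TGI = concentration required for complete inhibition of growth.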",
  "data": [
    {"system": "SNB-75 CNS", "experiment": "inhibition of tumour cell growth, NCI panel, 48 h", "values": [
      {"smiles": "COc1cccc2c1cc1c3c(cc4c(c32)OCO4)C(=O)N1", "GI50": "2.4 µM", "TGI": "11.1 µM"},
      {"smiles": "Cc1c(Cl)cccc1NC(=O)c1sc2nc3c(cc2c1N)CCCC3", "GI50": "0.282 µM", "TGI": "> 66.1 µM"},
      {"smiles": "O=C1/C(=C\\c2ccccc2)C2OCC=C3CN4CCC56c7ccccc7N1C5C2C3CC46", "note": "(centres undefined)", "GI50": "14.7 µM", "TGI": "> 100 µM"},
      {"smiles": "COc1ccc2c(c1)/C(=N/OC(C)=O)c1c-2cnc2ccccc12", "GI50": "37.4 µM", "TGI": "> 100 µM"},
      {"smiles": "CCCCCCCCCCSC(=N)N", "GI50": "1.79 µM", "TGI": "4.44 µM"},
      {"smiles": "Cn1cc(-c2nc(N[C@@H]3CCCC[C@@H]3N)c(F)c3c2C(=O)NC3)cn1", "GI50": "2.14 µM and 2.87 µM", "TGI": "11.7 µM and 16.5 µM"},
      {"smiles": "O=C(/C=C/c1ccco1)c1ccc(Nc2nc(Nc3ccc(F)cc3)nc(Nc3ccc(F)cc3)n2)cc1", "GI50": "30.7 µM", "TGI": "91.7 µM"},
      {"smiles": "O=C(NOCCO)c1cc(CN2OCCCC2=O)c(F)c(F)c1Nc1ccc(I)cc1F", "GI50": "16.4 µM and > 3.83 µM", "TGI": "> 100 µM"},
      {"smiles": "CN(C(=O)CNC(=O)/C=C/c1cccc(Cl)c1)C1CCS(=O)(=O)CC1", "GI50": "3.02 µM", "TGI": "> 100 µM"},
      {"smiles": "O=C(/C=C/c1cccc2ccccc12)Nc1ncc(Cc2ccccc2)s1", "GI50": "0.344 µM", "TGI": "1.55 µM"},
      {"smiles": "CCCN1CCC=C(c2ccc(Nc3nc(Nc4ccccc4C(N)=O)c4cc[nH]c4n3)c(C)c2)C1", "GI50": "> 25 µM", "TGI": "> 25 µM"}
    ]},
    {"system": "SF-539 CNS", "experiment": "inhibition of tumour cell growth, NCI panel, 48 h", "values": [
      {"smiles": "COc1cccc2c1cc1c3c(cc4c(c32)OCO4)C(=O)N1", "GI50": "4.8 µM", "TGI": "21.2 µM"},
      {"smiles": "Cc1c(Cl)cccc1NC(=O)c1sc2nc3c(cc2c1N)CCCC3", "GI50": "0.328 µM"},
      {"smiles": "O=C1/C(=C\\c2ccccc2)C2OCC=C3CN4CCC56c7ccccc7N1C5C2C3CC46", "note": "(centres undefined)", "GI50": "61.9 µM", "TGI": "> 100 µM"},
      {"smiles": "COc1ccc2c(c1)/C(=N/OC(C)=O)c1c-2cnc2ccccc12", "GI50": "41.9 µM", "TGI": "> 100 µM"},
      {"smiles": "CCCCCCCCCCSC(=N)N", "GI50": "10.2 µM", "TGI": "22.1 µM"},
      {"smiles": "Cn1cc(-c2nc(N[C@@H]3CCCC[C@@H]3N)c(F)c3c2C(=O)NC3)cn1", "GI50": "2.81 µM and 3.16 µM", "TGI": "13.9 µM and 16.1 µM"},
      {"smiles": "O=C(/C=C/c1ccco1)c1ccc(Nc2nc(Nc3ccc(F)cc3)nc(Nc3ccc(F)cc3)n2)cc1", "GI50": "24.8 µM", "TGI": "63.5 µM"},
      {"smiles": "O=C(NOCCO)c1cc(CN2OCCCC2=O)c(F)c(F)c1Nc1ccc(I)cc1F", "GI50": "8.61 µM and > 10 µM", "TGI": "66 µM and > 10 µM"},
      {"smiles": "CN(C(=O)CNC(=O)/C=C/c1cccc(Cl)c1)C1CCS(=O)(=O)CC1", "GI50": "7.28 µM", "TGI": "> 100 µM"},
      {"smiles": "O=C(/C=C/c1cccc2ccccc12)Nc1ncc(Cc2ccccc2)s1", "GI50": "0.716 µM", "TGI": "2.92 µM"},
      {"smiles": "CCCN1CCC=C(c2ccc(Nc3nc(Nc4ccccc4C(N)=O)c4cc[nH]c4n3)c(C)c2)C1", "GI50": "17.9 µM", "TGI": "> 25 µM"}
    ]},
    {"system": "SF-268 CNS", "experiment": "inhibition of tumour cell growth, NCI panel, 48 h", "units": {"TGI": "µM"}, "values": [
      {"smiles": "COc1cccc2c1cc1c3c(cc4c(c32)OCO4)C(=O)N1", "GI50": "6.07 µM", "TGI": 96.3},
      {"smiles": "Cc1c(Cl)cccc1NC(=O)c1sc2nc3c(cc2c1N)CCCC3", "GI50": "0.786 µM", "TGI": "> 100"},
      {"smiles": "O=C1/C(=C\\c2ccccc2)C2OCC=C3CN4CCC56c7ccccc7N1C5C2C3CC46", "note": "(centres undefined)", "GI50": "79.3 µM", "TGI": "> 100"},
      {"smiles": "COc1ccc2c(c1)/C(=N/OC(C)=O)c1c-2cnc2ccccc12", "GI50": "24 µM", "TGI": 68.7},
      {"smiles": "CCCCCCCCCCSC(=N)N", "GI50": "4.2 µM", "TGI": 17},
      {"smiles": "Cn1cc(-c2nc(N[C@@H]3CCCC[C@@H]3N)c(F)c3c2C(=O)NC3)cn1", "GI50": "5.42 µM and 6.7 µM", "TGI": "> 100"},
      {"smiles": "O=C(/C=C/c1ccco1)c1ccc(Nc2nc(Nc3ccc(F)cc3)nc(Nc3ccc(F)cc3)n2)cc1", "GI50": "7.49 µM", "TGI": 30.8},
      {"smiles": "O=C(NOCCO)c1cc(CN2OCCCC2=O)c(F)c(F)c1Nc1ccc(I)cc1F", "GI50": "22.6 µM and > 10 µM", "TGI": "> 100"},
      {"smiles": "CN(C(=O)CNC(=O)/C=C/c1cccc(Cl)c1)C1CCS(=O)(=O)CC1", "GI50": "65.1 µM", "TGI": "> 100"},
      {"smiles": "O=C(/C=C/c1cccc2ccccc12)Nc1ncc(Cc2ccccc2)s1", "GI50": "2.61 µM", "TGI": "> 100"},
      {"smiles": "CCCN1CCC=C(c2ccc(Nc3nc(Nc4ccccc4C(N)=O)c4cc[nH]c4n3)c(C)c2)C1", "GI50": "> 25 µM", "TGI": "> 25"}
    ]},
    {"system": "T-47D breast", "experiment": "inhibition of tumour cell growth, NCI panel, 48 h", "values": [
      {"smiles": "COc1cccc2c1cc1c3c(cc4c(c32)OCO4)C(=O)N1", "GI50": "2.33 µM", "TGI": "6.81 µM"},
      {"smiles": "Cc1c(Cl)cccc1NC(=O)c1sc2nc3c(cc2c1N)CCCC3", "GI50": "0.402 µM", "TGI": "> 100 µM"},
      {"smiles": "O=C1/C(=C\\c2ccccc2)C2OCC=C3CN4CCC56c7ccccc7N1C5C2C3CC46", "note": "(centres undefined)", "GI50": "64.8 µM", "TGI": "> 100 µM"},
      {"smiles": "COc1ccc2c(c1)/C(=N/OC(C)=O)c1c-2cnc2ccccc12", "GI50": "19.9 µM", "TGI": "66.3 µM"},
      {"smiles": "CCCCCCCCCCSC(=N)N", "GI50": "2.04 µM", "TGI": "4.55 µM"},
      {"smiles": "Cn1cc(-c2nc(N[C@@H]3CCCC[C@@H]3N)c(F)c3c2C(=O)NC3)cn1", "GI50": "24.8 µM and 33.7 µM", "TGI": "77.3 µM and > 96.6 µM"},
      {"smiles": "O=C(/C=C/c1ccco1)c1ccc(Nc2nc(Nc3ccc(F)cc3)nc(Nc3ccc(F)cc3)n2)cc1", "GI50": "11.4 µM", "TGI": "59.8 µM"},
      {"smiles": "O=C(NOCCO)c1cc(CN2OCCCC2=O)c(F)c(F)c1Nc1ccc(I)cc1F", "GI50": "29.4 µM and > 10 µM", "TGI": "> 100 µM"},
      {"smiles": "CN(C(=O)CNC(=O)/C=C/c1cccc(Cl)c1)C1CCS(=O)(=O)CC1", "GI50": "7.36 µM", "TGI": "> 100 µM"},
      {"smiles": "O=C(/C=C/c1cccc2ccccc12)Nc1ncc(Cc2ccccc2)s1", "GI50": "0.894 µM", "TGI": "> 100 µM"},
      {"smiles": "CCCN1CCC=C(c2ccc(Nc3nc(Nc4ccccc4C(N)=O)c4cc[nH]c4n3)c(C)c2)C1", "GI50": "> 18.3 µM", "TGI": "> 25 µM"}
    ]},
    {"system": "BT-549 breast", "experiment": "inhibition of tumour cell growth, NCI panel, 48 h", "values": [
      {"smiles": "COc1cccc2c1cc1c3c(cc4c(c32)OCO4)C(=O)N1", "GI50": "2.08 µM", "TGI": "4.74 µM"},
      {"smiles": "Cc1c(Cl)cccc1NC(=O)c1sc2nc3c(cc2c1N)CCCC3", "GI50": "0.591 µM", "TGI": "> 100 µM"},
      {"smiles": "O=C1/C(=C\\c2ccccc2)C2OCC=C3CN4CCC56c7ccccc7N1C5C2C3CC46", "note": "(centres undefined)", "GI50": "34.2 µM", "TGI": "> 100 µM"},
      {"smiles": "COc1ccc2c(c1)/C(=N/OC(C)=O)c1c-2cnc2ccccc12", "GI50": "49.5 µM", "TGI": "> 100 µM"},
      {"smiles": "CCCCCCCCCCSC(=N)N", "GI50": "11.3 µM", "TGI": "24.6 µM"},
      {"smiles": "Cn1cc(-c2nc(N[C@@H]3CCCC[C@@H]3N)c(F)c3c2C(=O)NC3)cn1", "GI50": "6.47 µM and 10 µM", "TGI": "21.3 µM and 29.7 µM"},
      {"smiles": "O=C(/C=C/c1ccco1)c1ccc(Nc2nc(Nc3ccc(F)cc3)nc(Nc3ccc(F)cc3)n2)cc1", "GI50": "4.9 µM", "TGI": "26.8 µM"},
      {"smiles": "O=C(NOCCO)c1cc(CN2OCCCC2=O)c(F)c(F)c1Nc1ccc(I)cc1F", "GI50": "17.3 µM and > 10 µM", "TGI": "> 100 µM"},
      {"smiles": "CN(C(=O)CNC(=O)/C=C/c1cccc(Cl)c1)C1CCS(=O)(=O)CC1", "GI50": "6.09 µM", "TGI": "> 100 µM"},
      {"smiles": "O=C(/C=C/c1cccc2ccccc12)Nc1ncc(Cc2ccccc2)s1", "GI50": "2.44 µM", "TGI": "> 100 µM"},
      {"smiles": "CCCN1CCC=C(c2ccc(Nc3nc(Nc4ccccc4C(N)=O)c4cc[nH]c4n3)c(C)c2)C1", "GI50": "17.2 µM", "TGI": "> 25 µM"}
    ]}
  ]
}
